# Assay results: ChEMBL document CHEMBL5321219, “Selective degradation of cellular BRD3 and BRD4-L promoted by PROTAC molecules in six cancer cell lines” (Eur J Med Chem, 2023)
# Activity calls are given as the source filed them. The calls are words filed in the database; no cut-off is given here.
# How the values were obtained:
# [1] = Oral bioavailability in C57 mouse at 3 mg/kg measured upto 24 hrs by LC-MS/MS analysis; assay type: ADME, organism-based; conditions: in vivo
# [2] = Tmax in C57 mouse at 3 mg/kg, po measured upto 24 hrs by LC-MS/MS analysis; assay type: ADME, organism-based; conditions: in vivo
# [3] = Cmax in C57 mouse at 3 mg/kg, iv measured upto 24 hrs by LC-MS/MS analysis; assay type: ADME, organism-based; set-up: dose 3 mg/kg, time < 24 hrs, route iv; conditions: in vivo
# MM1.S [4] = test: Induction of cell cycle arrest in human MM1.S cells assessed as accumulation of cells at G1 phase incubated for 24 hrs by flow cytometry analysis; assay type: functional, cell-based; conditions: dose 1-300 nM
# [5] = target: T1, Protein cereblon/Bromodomain-containing protein 4 (Homo sapiens) (UniProt O60885+Q96SW2); test: In vivo PROTAC activity at CRBN/BRD4-S in SCID mouse xenografted with human MM1.S cells assessed as reduction in BRD4-S protein level in tumor at 1 to 5 mg/kg, iv measured after 6 hrs by Western blot analysis; assay type: functional, organism-based; conditions: dose 1-5 mg/kg
# T1 sequence (Q96SW2 whole entry, looked up, other chains not shown): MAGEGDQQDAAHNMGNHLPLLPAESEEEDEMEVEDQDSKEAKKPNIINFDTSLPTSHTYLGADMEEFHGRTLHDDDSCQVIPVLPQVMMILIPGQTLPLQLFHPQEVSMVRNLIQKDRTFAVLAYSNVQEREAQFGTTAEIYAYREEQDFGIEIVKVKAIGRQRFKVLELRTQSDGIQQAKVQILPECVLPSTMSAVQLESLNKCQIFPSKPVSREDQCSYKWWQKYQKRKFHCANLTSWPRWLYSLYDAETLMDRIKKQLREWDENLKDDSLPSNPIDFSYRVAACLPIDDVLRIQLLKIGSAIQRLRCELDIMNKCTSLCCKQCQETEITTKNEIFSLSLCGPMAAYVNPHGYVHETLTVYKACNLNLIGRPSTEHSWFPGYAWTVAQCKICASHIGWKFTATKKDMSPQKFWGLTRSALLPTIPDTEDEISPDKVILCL
# [6] = target: T2, Protein cereblon/Bromodomain-containing protein 2 (Homo sapiens) (UniProt P25440+Q96SW2); test: In vivo PROTAC activity at CRBN/BRD2 in SCID mouse xenografted with human MM1.S cells assessed as reduction in BRD2 protein level in tumor at 1 to 5 mg/kg, iv measured after 6 hrs by Western blot analysis; assay type: functional, organism-based; conditions: dose 1-5 mg/kg
# T2 sequence (P25440 whole entry, looked up): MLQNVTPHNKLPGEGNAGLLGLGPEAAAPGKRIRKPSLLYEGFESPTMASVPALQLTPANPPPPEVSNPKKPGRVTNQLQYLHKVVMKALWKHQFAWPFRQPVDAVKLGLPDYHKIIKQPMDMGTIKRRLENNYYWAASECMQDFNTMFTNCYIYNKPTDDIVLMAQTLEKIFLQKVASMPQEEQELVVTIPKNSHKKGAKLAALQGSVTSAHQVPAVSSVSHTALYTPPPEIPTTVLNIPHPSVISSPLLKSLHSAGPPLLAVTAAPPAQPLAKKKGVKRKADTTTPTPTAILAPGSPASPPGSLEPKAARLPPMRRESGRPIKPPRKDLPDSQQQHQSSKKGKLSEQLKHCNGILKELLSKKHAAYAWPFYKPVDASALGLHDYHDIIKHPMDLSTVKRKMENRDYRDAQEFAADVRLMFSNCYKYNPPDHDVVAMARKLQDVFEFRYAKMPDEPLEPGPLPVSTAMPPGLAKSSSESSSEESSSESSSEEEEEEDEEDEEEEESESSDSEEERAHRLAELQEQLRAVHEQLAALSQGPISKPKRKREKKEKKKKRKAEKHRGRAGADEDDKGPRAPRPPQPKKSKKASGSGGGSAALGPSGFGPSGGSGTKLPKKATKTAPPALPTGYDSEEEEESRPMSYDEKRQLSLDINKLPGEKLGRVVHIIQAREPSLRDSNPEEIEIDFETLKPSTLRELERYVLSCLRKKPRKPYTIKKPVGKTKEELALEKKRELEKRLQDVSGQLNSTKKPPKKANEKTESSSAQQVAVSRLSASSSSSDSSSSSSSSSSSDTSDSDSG
# T2 sequence (Q96SW2 whole entry, looked up): as the sequence (Q96SW2 whole entry, looked up, other chains not shown) above
# [7] = target: T1, Protein cereblon/Bromodomain-containing protein 4 (Homo sapiens); test: In vivo PROTAC activity at CRBN/BRD4-L in SCID mouse xenografted with human MM1.S cells assessed as reduction in BRD4-L protein level in tumor at 1 to 5 mg/kg, iv measured after 6 hrs by Western blot analysis; assay type: functional, organism-based; conditions: dose 1-5 mg/kg
# [8] = target: T3, Bromodomain-containing protein 3 (Homo sapiens, UniProt Q15059); test: Binding affinity to recombinant human BRD3 BD2 (306 to 417 residues) assessed as inhibition constant by fluorescence polarization binding assay
# T3 sequence (Q15059 whole entry, the tested form may be a part): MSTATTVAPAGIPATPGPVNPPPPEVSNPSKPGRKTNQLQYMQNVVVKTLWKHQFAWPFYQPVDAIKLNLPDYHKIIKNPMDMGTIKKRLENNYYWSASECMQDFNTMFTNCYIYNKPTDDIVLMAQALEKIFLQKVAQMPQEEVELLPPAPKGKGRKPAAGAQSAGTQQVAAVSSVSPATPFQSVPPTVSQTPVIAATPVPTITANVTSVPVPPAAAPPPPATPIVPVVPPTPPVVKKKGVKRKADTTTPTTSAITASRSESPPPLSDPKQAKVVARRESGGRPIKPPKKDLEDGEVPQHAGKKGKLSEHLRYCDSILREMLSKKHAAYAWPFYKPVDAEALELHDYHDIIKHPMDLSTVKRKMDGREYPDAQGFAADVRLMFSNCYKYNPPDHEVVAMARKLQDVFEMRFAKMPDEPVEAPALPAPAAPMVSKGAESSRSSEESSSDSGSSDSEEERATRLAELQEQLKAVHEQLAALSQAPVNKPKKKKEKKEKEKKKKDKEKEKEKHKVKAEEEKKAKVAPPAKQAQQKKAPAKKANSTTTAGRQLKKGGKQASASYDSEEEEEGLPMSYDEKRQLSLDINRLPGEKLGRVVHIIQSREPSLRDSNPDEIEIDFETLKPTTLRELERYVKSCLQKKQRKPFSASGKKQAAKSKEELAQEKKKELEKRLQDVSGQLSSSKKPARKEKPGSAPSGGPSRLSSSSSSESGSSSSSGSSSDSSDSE
# MM1.S [9] = test: Antitumor activity against human MM1.S cells xenografted in SCID mouse assessed as tumor growth inhibition at 1 mg/kg, iv administered once daily via tail vein for 14 consecutive days and measured twice a week relative to control; assay type: functional; conditions: 336 h, time 14 day, read-out: TGI
# [10] = target: T4, Protein cereblon/Bromodomain-containing protein 3 (Homo sapiens) (UniProt Q15059+Q96SW2); test: In vivo PROTAC activity at CRBN/BRD3 in SCID mouse xenografted with human MM1.S cells assessed as reduction in BRD3 protein level in tumor at 5 mg/kg, iv measured after 24 hrs by Western blot analysis; assay type: functional, organism-based
# T4 sequence (Q15059 2-726 limits assumed): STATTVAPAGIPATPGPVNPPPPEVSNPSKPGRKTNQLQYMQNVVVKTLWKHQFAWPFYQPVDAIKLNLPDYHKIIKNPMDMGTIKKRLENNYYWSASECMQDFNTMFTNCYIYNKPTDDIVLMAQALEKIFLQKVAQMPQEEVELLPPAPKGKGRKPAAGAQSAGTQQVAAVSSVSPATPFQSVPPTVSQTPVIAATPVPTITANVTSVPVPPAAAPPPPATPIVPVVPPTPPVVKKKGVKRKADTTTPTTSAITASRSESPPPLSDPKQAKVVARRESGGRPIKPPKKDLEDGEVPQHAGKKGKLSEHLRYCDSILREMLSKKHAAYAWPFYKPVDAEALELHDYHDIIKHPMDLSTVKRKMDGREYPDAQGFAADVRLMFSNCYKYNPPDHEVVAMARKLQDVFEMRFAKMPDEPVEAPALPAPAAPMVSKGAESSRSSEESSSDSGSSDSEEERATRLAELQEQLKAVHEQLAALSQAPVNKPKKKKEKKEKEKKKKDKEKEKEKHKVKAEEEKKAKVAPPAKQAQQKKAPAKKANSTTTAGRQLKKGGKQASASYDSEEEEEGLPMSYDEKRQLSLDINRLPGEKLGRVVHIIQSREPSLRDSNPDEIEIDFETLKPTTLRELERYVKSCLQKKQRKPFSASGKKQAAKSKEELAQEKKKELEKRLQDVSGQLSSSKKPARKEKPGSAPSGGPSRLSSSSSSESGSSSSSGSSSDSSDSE
# T4 sequence (Q96SW2 whole entry partner): as the sequence (Q96SW2 whole entry, looked up, other chains not shown) above
# [11] = Cmax in C57 mouse at 3 mg/kg, po measured upto 24 hrs by LC-MS/MS analysis; assay type: ADME, organism-based; set-up: dose 3 mg/kg, time < 24 hrs, route po; conditions: in vivo
# MM1.S [12] = test: Downregulation of c-Myc expression in human MM1.S cells at 30 nM measured after 1 to 24 hrs by Western blot analysis; assay type: functional, cell-based; conditions: time 1-24 hrs
# [13] = target: T3, Bromodomain-containing protein 3; test: Binding affinity to recombinant human BRD3 BD1 (24 to 144 residues) assessed as inhibition constant by fluorescence polarization binding assay
# MV4-11 = test: Antiproliferative activity against human MV4-11 cells assessed as cell growth inhibition measured after 3 days by CellTitre-Glo assay; assay type: functional, cell-based; conditions: MV4-11, 72 h
# [14] = Clearance in C57 mouse at 3 mg/kg, po measured upto 24 hrs by LC-MS/MS analysis; assay type: ADME, organism-based; conditions: in vivo
# [15] = target: T4, Protein cereblon/Bromodomain-containing protein 3 (Homo sapiens); test: In vivo PROTAC activity at CRBN/BRD3 in SCID mouse xenografted with human MM1.S cells assessed as reduction in BRD3 protein level in tumor at 1 to 5 mg/kg, iv measured after 6 hrs by Western blot analysis; assay type: functional, organism-based; conditions: dose 1-5 mg/kg
# MM1.S [16] = test: Antitumor activity against human MM1.S cells xenografted in SCID mouse assessed as tumor growth inhibition at 5 mg/kg, iv administered once daily via tail vein for 8 consecutive days and measured twice a week relative to control; assay type: functional; conditions: 192 h, time 8 day, read-out: TGI
# [17] = target: T4, Protein cereblon/Bromodomain-containing protein 3 (Homo sapiens); test: In vivo PROTAC activity at CRBN/BRD3 in SCID mouse xenografted with human MM1.S cells assessed as reduction in BRD3 protein level in tumor at 1 mg/kg, iv measured after 24 hrs by Western blot analysis; assay type: functional, organism-based
# [18] = target: T4, Protein cereblon/Bromodomain-containing protein 3 (Homo sapiens); test: PROTAC activity at CRBN/BRD3 in human MM1.S cells assessed as induction of protein degradation at 1 uM measured after 1 to 24 hrs by Western blot analysis; assay type: cell-based; conditions: time 1-24 hrs
# [19] = Toxicity in SCID mouse xenografted with human MM1.S cells assessed as effect on body weight at 1 mg/kg, iv administered once daily via tail vein for 14 consecutive days and measured twice a week; assay type: organism-based; conditions: in vivo, 336 h, time 14 day
# [20] = target: T2, Protein cereblon/Bromodomain-containing protein 2 (Homo sapiens); test: PROTAC activity at CRBN/BRD2 in human MM1.S cells assessed as induction of protein degradation at 1 uM measured after 1 to 24 hrs by Western blot analysis; assay type: cell-based; conditions: time 1-24 hrs
# [21] = Clearance in C57 mouse at 3 mg/kg, iv measured upto 24 hrs by LC-MS/MS analysis; assay type: ADME, organism-based; conditions: in vivo
# [22] = Toxicity in SCID mouse xenografted with human MM1.S cells assessed as loss of body weight at 5 mg/kg, iv administered once daily via tail vein for 8 consecutive days and measured twice a week; assay type: organism-based; conditions: in vivo, 192 h, time 8 day
# [23] = target: T1, Protein cereblon/Bromodomain-containing protein 4 (Homo sapiens); test: PROTAC activity at CRBN/BRD4-S in human MM1.S cells assessed as induction of protein degradation at 1 uM measured after 1 to 24 hrs by Western blot analysis; assay type: cell-based; conditions: time 1-24 hrs
# MM1.S [24] = test: Antiproliferative activity against human MM1.S cells assessed as cell growth inhibition measured after 4 days by CellTitre-Glo assay; assay type: functional, cell-based; conditions: 96 h
# [25] = target: T1, Protein cereblon/Bromodomain-containing protein 4 (Homo sapiens); test: PROTAC activity at CRBN/BRD4-L in human MM1.S cells assessed as induction of protein degradation at 1 uM measured after 1 to 24 hrs by Western blot analysis; assay type: cell-based; conditions: time 1-24 hrs
# [26] = target: T4, Protein cereblon/Bromodomain-containing protein 3 (Homo sapiens); test: PROTAC activity at CRBN/BRD3 in human MM1.S cells assessed as induction of protein degradation at 30 nM by Western blot analysis; assay type: cell-based; conditions: TDE = time-dependent effect
# [27] = target: T1, Protein cereblon/Bromodomain-containing protein 4 (Homo sapiens); test: PROTAC activity at CRBN/BRD4-L in human MM1.S cells assessed as induction of protein degradation at 30 nM by Western blot analysis; assay type: cell-based; conditions: TDE = time-dependent effect
# MM1.S [28] = test: Downregulation of c-Myc protein expression in human MM1.S cells at 0.1 to 30 nM measured after 24 hrs by Western blot analysis; assay type: functional, cell-based; conditions: dose 0.1-30 nM
# [29] = target: T2, Protein cereblon/Bromodomain-containing protein 2 (Homo sapiens); test: In vivo PROTAC activity at CRBN/BRD2 in SCID mouse xenografted with human MM1.S cells assessed as reduction in BRD2 protein level in tumor at 5 mg/kg, iv measured after 24 hrs by Western blot analysis; assay type: functional, organism-based
# [30] = target: T1, Protein cereblon/Bromodomain-containing protein 4 (Homo sapiens); test: In vivo PROTAC activity at CRBN/BRD4-S in SCID mouse xenografted with human MM1.S cells assessed as reduction in BRD4-S protein level in tumor at 5 mg/kg, iv measured after 24 hrs by Western blot analysis; assay type: functional, organism-based
# [31] = Half life in C57 mouse at 3 mg/kg, iv measured upto 24 hrs by LC-MS/MS analysis; assay type: ADME, organism-based; conditions: in vivo
# [32] = target: T1, Protein cereblon/Bromodomain-containing protein 4 (Homo sapiens); test: In vivo PROTAC activity at CRBN/BRD4-L in SCID mouse xenografted with human MM1.S cells assessed as reduction in BRD4-L protein level in tumor at 5 mg/kg, iv measured after 24 hrs by Western blot analysis; assay type: functional, organism-based
# [33] = AUC (0 to t) in C57 mouse at 3 mg/kg, iv measured upto 24 hrs by LC-MS/MS analysis; assay type: ADME, organism-based; set-up: dose 3 mg/kg, time < 24 hrs, route iv; conditions: in vivo
# [34] = AUC (0 to t) in C57 mouse at 3 mg/kg, po measured upto 24 hrs by LC-MS/MS analysis; assay type: ADME, organism-based; set-up: time < 24 hrs, dose 3 mg/kg, route po; conditions: in vivo
# [35] = Tmax in C57 mouse at 3 mg/kg, iv measured upto 24 hrs by LC-MS/MS analysis; assay type: ADME, organism-based; conditions: in vivo
smiles,measurement,setting,value
Cc1nnc2n1-c1ccc(-c3ccc(CN(C)CCCCc4cccc5c4CN(C4CCC(=O)NC4=O)C5=O)cc3)cc1C(Nc1ccc(Cl)cc1)CC2 (stereo unspecified),F,[1],2.14%
same,Tmax,[2],24 min
same,Cmax,[3],7410 ng/mL
same,Activity,MM1.S [4],Dose-Dependent Effect
same,Activity,[5],inactive
same,Activity,[6],inactive
same,Activity,[7],Active
same,Ki,[8],2.8 nM
same,inhibition in vivo at 1 mg/kg,MM1.S [9],40%
same,Activity,[10],Active
same,Cmax,[11],51 ng/mL
same,Activity,MM1.S [12],Active
same,Ki,[13],16.9 nM
same,IC50,MV4-11,7.46 nM
same,CL/F,[14],1240 mL/min/kg
same,Activity,[15],Active
same,inhibition in vivo at 5 mg/kg,MM1.S [16],64%
same,Activity,[17],inactive
same,Activity,[18],Active
same,Activity,[19],Non-Toxic
same,Activity,[20],Active
same,clearance,[21],16.9 mL/min/kg
same,Activity,[22],Toxic
same,Activity,[23],inactive
same,IC50,MM1.S [24],85.4 nM
same,Activity,[25],Active
same,Activity,[26],Tde
same,Activity,[27],Tde
same,Activity,MM1.S [28],Active
same,Activity,[29],inactive
same,Activity,[30],inactive
same,half-life,[31],30 min
same,Activity,[32],inactive
same,AUCt,[33],2961 ng·h/mL
same,AUCt,[34],26 ng·h/mL
same,Tmax,[35],6 min
